Experimental data: BindingDB's records for doi:10.1016/s0960-894x(00)00026-3 (Universit&#224, 2000)

Assay: Inhibition of Clostridium histolyticum collagenase using a linear regression program

| SMILES | Ki |
| --- | --- |
| Cc1ccc(S(=O)(=O)N(Cc2ccc([N+](=O)[O-])cc2)C(C)C(=O)O)cc1 (configuration not stated) [2-[(4-Nitro-benzyl)-(toluene-4-sulfonyl)-amino]-propionic acid] | 13 µM |
| CC(C(=O)O)N(Cc1ccc([N+](=O)[O-])cc1)S(=O)(=O)c1c(F)c(F)c(F)c(F)c1F (configuration not stated) [2-[(4-Nitro-benzyl)-pentafluorobenzenesulfonyl-amino]-propionic acid] | 0.4 µM |
| CC(C(=O)O)N(Cc1ccc([N+](=O)[O-])cc1)S(=O)(=O)Cc1ccccc1 (configuration not stated) [2-[(4-Nitro-benzyl)-phenylmethanesulfonyl-amino]-propionic acid] | 15 µM |
| CC(C(=O)O)N(Cc1ccc([N+](=O)[O-])cc1)S(=O)(=O)C(Cl)(Cl)Cl (configuration not stated) [2-[(4-Nitro-benzyl)-trichloromethanesulfonyl-amino]-propionic acid] | 5.1 µM |
| CC(C(=O)O)N(Cc1ccc([N+](=O)[O-])cc1)S(=O)(=O)C(F)(F)F (configuration not stated) [2-[(4-Nitro-benzyl)-trifluoromethanesulfonyl-amino]-propionic acid] | 4.7 µM |
| CC(C(=O)O)N(Cc1ccc([N+](=O)[O-])cc1)S(=O)(=O)c1ccc(NC(=O)OC(C)(C)C)cc1 (configuration not stated) [2-[(4-tert-Butoxycarbonylamino-benzenesulfonyl)-(4-nitro-benzyl)-amino]-propionic acid] | 2.4 µM |
| CC(C(=O)NO)N(Cc1ccc([N+](=O)[O-])cc1)S(=O)(=O)c1cccc2c(N(C)C)cccc12 (configuration not stated) [2-[(5-Dimethylamino-naphthalene-1-sulfonyl)-(4-nitro-benzyl)-amino]-N-hydroxy-propionamide] | 7 µM |
| CC(C(=O)O)N(Cc1ccc([N+](=O)[O-])cc1)S(=O)(=O)c1cccc2c(N(C)C)cccc12 (configuration not stated) [2-[(5-Dimethylamino-naphthalene-1-sulfonyl)-(4-nitro-benzyl)-amino]-propionic acid] | 1.1 µM |
| CC(C(=O)NO)N(Cc1ccc([N+](=O)[O-])cc1)S(=O)(=O)C(F)(F)C(F)(F)C(F)(F)C(F)(F)C(F)(F)C(F)(F)C(F)(F)C(F)(F)F (configuration not stated) [2-[(Heptadecafluorooctane-1-sulfonyl)-(4-nitro-benzyl)-amino]-N-hydroxy-propionamide] | 7 µM |
| CC(C(=O)O)N(Cc1ccc([N+](=O)[O-])cc1)S(=O)(=O)C(F)(F)C(F)(F)C(F)(F)C(F)(F)C(F)(F)C(F)(F)C(F)(F)C(F)(F)F (configuration not stated) [2-[(Heptadecafluorooctane-1-sulfonyl)-(4-nitro-benzyl)-amino]-propionic acid] | 1.8 µM |
| CC(C(=O)O)N(Cc1ccc([N+](=O)[O-])cc1)S(=O)(=O)c1cccc2ccccc12 (configuration not stated) [2-[(Naphthalene-1-sulfonyl)-(4-nitro-benzyl)-amino]-propionic acid] | 1.2 µM |
| CC(C(=O)O)N(Cc1ccc([N+](=O)[O-])cc1)S(=O)(=O)c1ccc2ccccc2c1 (configuration not stated) [2-[(Naphthalene-2-sulfonyl)-(4-nitro-benzyl)-amino]-propionic acid] | 1.3 µM |
| Cc1ccccc1S(=O)(=O)NC(=O)N(Cc1ccc([N+](=O)[O-])cc1)C(C)C(=O)O (configuration not stated) [2-[({[(2-methylphenyl)sulfonyl]amino}carbonyl)(4-nitrobenzyl)amino]propanoic acid] | 3.1 µM |
| CC(C(=O)NO)N(Cc1ccc([N+](=O)[O-])cc1)C(=O)NS(=O)(=O)c1ccc(Cl)cc1 (configuration not stated) [2-[({[(4-chlorophenyl)sulfonyl]amino}carbonyl)(4-nitrobenzyl)amino]-N-hydroxypropanamide] | 7 µM |
| CC(C(=O)O)N(Cc1ccc([N+](=O)[O-])cc1)C(=O)NS(=O)(=O)c1ccc(Cl)cc1 (configuration not stated) [2-[({[(4-chlorophenyl)sulfonyl]amino}carbonyl)(4-nitrobenzyl)amino]propanoic acid] | 2.4 µM |
| CC(C(=O)NO)N(Cc1ccc([N+](=O)[O-])cc1)C(=O)NS(=O)(=O)c1ccc(F)cc1 (configuration not stated) [2-[({[(4-fluorophenyl)sulfonyl]amino}carbonyl)(4-nitrobenzyl)amino]-N-hydroxypropanamide] | 9 µM |

| SMILES | Ki |
| --- | --- |
| CC(C(=O)O)N(Cc1ccc([N+](=O)[O-])cc1)C(=O)NS(=O)(=O)c1ccc(F)cc1 (configuration not stated) [2-[({[(4-fluorophenyl)sulfonyl]amino}carbonyl)(4-nitrobenzyl)amino]propanoic acid] | 3.3 µM |
| Cc1ccc(S(=O)(=O)NC(=O)N(Cc2ccc([N+](=O)[O-])cc2)C(C)C(=O)O)cc1 (configuration not stated) [2-[({[(4-methylphenyl)sulfonyl]amino}carbonyl)(4-nitrobenzyl)amino]propanoic acid] | 2.5 µM |
| CC(C(=O)NO)N(Cc1ccc([N+](=O)[O-])cc1)S(=O)(=O)c1ccccc1 (configuration not stated) [2-[Benzenesulfonyl-(4-nitro-benzyl)-amino]-N-hydroxy-propionamide] | 54 µM |
| CC(C(=O)O)N(Cc1ccc([N+](=O)[O-])cc1)S(=O)(=O)c1ccccc1 (configuration not stated) [2-[Benzenesulfonyl-(4-nitro-benzyl)-amino]-propionic acid] | 21 µM |
| CC(C(=O)O)N(Cc1ccc([N+](=O)[O-])cc1)S(C)(=O)=O (configuration not stated) [2-[Methanesulfonyl-(4-nitro-benzyl)-amino]-propionic acid] | 18 µM |
| CC(C(=O)NO)N(Cc1ccc([N+](=O)[O-])cc1)S(=O)(=O)N(C)C (configuration not stated) [2-[[(dimethylamino)sulfonyl](4-nitrobenzyl)amino]-N-hydroxypropanamide] | 69 µM |
| CC(C(=O)O)N(Cc1ccc([N+](=O)[O-])cc1)S(=O)(=O)N(C)C (configuration not stated) [2-[[(dimethylamino)sulfonyl](4-nitrobenzyl)amino]propanoic acid] | 36 µM |
| CC(C(=O)O)N(Cc1ccc([N+](=O)[O-])cc1)S(=O)(=O)c1cccc(C(=O)O)c1 (configuration not stated) [3-[(1-Carboxy-ethyl)-(4-nitro-benzyl)-sulfamoyl]-benzoic acid] | 2 µM |
| CC(C(=O)NO)N(Cc1ccc([N+](=O)[O-])cc1)S(=O)(=O)c1cccc(C(=O)O)c1 (configuration not stated) [3-[(1-Hydroxycarbamoyl-ethyl)-(4-nitro-benzyl)-sulfamoyl]-benzoic acid] | 9 µM |
| CC(C(=O)O)N(Cc1ccc([N+](=O)[O-])cc1)S(=O)(=O)c1ccc(C(=O)O)cc1 (configuration not stated) [4-[(1-Carboxy-ethyl)-(4-nitro-benzyl)-sulfamoyl]-benzoic acid] | 1.4 µM |
| CC(C(=O)NO)N(Cc1ccc([N+](=O)[O-])cc1)S(=O)(=O)c1ccc(C(=O)O)cc1 (configuration not stated) [4-[(1-Hydroxycarbamoyl-ethyl)-(4-nitro-benzyl)-sulfamoyl]-benzoic acid] | 6 µM |
| CC(C(=O)NO)N(Cc1ccc([N+](=O)[O-])cc1)C(=O)Nc1cccc2ccccc12 (configuration not stated) [N-Hydroxy-2-[3-naphthalen-1-yl-1-(4-nitro-benzyl)-ureido]-propionamide] | 10 µM |
| CC(C(=O)NO)N(Cc1ccc([N+](=O)[O-])cc1)S(=O)(=O)c1ccccc1[N+](=O)[O-] (configuration not stated) [N-Hydroxy-2-[(2-nitro-benzenesulfonyl)-(4-nitro-benzyl)-amino]-propionamide] | 13 µM |
| CC(C(=O)NO)N(Cc1ccc([N+](=O)[O-])cc1)S(=O)(=O)c1cccc([N+](=O)[O-])c1 (configuration not stated) [N-Hydroxy-2-[(3-nitro-benzenesulfonyl)-(4-nitro-benzyl)-amino]-propionamide] | 12 µM |
| CC(C(=O)NO)N(Cc1ccc([N+](=O)[O-])cc1)S(=O)(=O)c1ccc(I)cc1 (configuration not stated) [N-Hydroxy-2-[(4-iodo-benzenesulfonyl)-(4-nitro-benzyl)-amino]-propionamide] | 37 µM |
| COc1ccc(S(=O)(=O)N(Cc2ccc([N+](=O)[O-])cc2)C(C)C(=O)NO)cc1 (configuration not stated) [N-Hydroxy-2-[(4-methoxy-benzenesulfonyl)-(4-nitro-benzyl)-amino]-propionamide] | 21 µM |
